This note sets out measurements from US9932340B2, “Substituted indoles” (AbbVie Inc., priority 2014, dated 2018).

The structures appear in SMILES notation.

Usually IC50 stands for the concentration that gives 50% inhibition.

Chain of SUV420H1 enzyme (Q4FZB7 whole entry): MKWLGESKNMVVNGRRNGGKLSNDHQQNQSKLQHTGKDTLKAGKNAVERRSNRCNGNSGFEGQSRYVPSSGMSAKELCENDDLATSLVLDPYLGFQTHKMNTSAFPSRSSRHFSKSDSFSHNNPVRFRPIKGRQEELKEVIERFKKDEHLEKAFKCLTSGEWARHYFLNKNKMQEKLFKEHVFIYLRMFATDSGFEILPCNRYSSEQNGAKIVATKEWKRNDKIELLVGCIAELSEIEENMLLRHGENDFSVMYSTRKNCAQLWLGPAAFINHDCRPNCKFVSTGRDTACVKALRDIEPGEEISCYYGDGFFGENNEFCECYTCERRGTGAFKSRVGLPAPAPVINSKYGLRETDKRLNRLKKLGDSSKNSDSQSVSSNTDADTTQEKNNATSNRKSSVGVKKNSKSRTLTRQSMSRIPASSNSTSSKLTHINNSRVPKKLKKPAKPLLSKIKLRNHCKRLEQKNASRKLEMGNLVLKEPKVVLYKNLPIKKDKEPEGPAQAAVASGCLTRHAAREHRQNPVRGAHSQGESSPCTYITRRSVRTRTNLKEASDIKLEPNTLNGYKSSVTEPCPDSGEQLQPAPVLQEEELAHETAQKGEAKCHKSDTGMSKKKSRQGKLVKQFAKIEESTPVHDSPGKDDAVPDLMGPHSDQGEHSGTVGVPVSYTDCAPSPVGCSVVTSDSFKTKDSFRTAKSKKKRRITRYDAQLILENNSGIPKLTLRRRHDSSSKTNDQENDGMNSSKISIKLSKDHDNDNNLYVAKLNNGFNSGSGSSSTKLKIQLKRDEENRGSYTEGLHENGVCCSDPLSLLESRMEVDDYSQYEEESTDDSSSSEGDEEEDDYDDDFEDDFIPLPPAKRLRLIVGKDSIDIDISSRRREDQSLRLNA

The target of this experiment is SUV420H1 enzyme (Homo sapiens, UniProt Q4FZB7). Description: TR-FRET SAH SUV420H1 enzyme inhibition assay. The class given is biochemical. To be noted: Histone Peptide H4(8-30)me1 and SAM, overnight at room temp, TR-FRET detection of SAH, read-out: TR-FRET SAH_SUV420H1 IC50. The procedure, abridged:
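SUV420H1 (90 nM) preincubated 30 min with compound (3-fold dilutions, 50 to 0.00075 μM), then H4(8-30)me1 peptide 5 nM and SAM 4 nM added, overnight at room temp. SAH product detected by TR-FRET with Tb anti-SAH antibody and Oregon Green-SAH in RIPA buffer, 4 h; IC50 from Hill fit, asymptotes fixed 0-100%.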
Background: In TR-FRET formats the signal depends on donor and acceptor labels being close together.
On to `Cc1ccccc1CC(=O)NCc1cc2cc(Cl)cc(Cn3cnc4c(N)ncnc43)c2[nH]1` [Example 294, N-({7-[(6-amino-9H-purin-9-yl)methyl]-5-chloro-1H-indol-2-yl}methyl)-2-(2-methylphenyl)acetamide], for which the IC50 was above 50000 nM.

Take `Nc1ncnc2c1ncn2Cc1cc(Cl)cc2cc(CNCc3ccccc3F)[nH]c12` [Example 214, 9-[(5-chloro-2-{[(2-fluorobenzyl)amino]methyl}-1H-indol-7-yl)methyl]-9H-purin-6-amine]: the IC50 is 2840 nM.

`NCc1cc2cc(-c3ccc4c(c3)CCO4)cc(Cn3cnc4c(N)ncnc43)c2[nH]1` [Example 57, 9-{[2-(aminomethyl)-5-(2,3-dihydro-1-benzofuran-5-yl)-1H-indol-7-yl]methyl}-9H-purin-6-amine]: the IC50 is 457 nM.

As to `Nc1ncnc2c1ncn2Cc1cc(Cl)cc2cc(CNC(=O)c3cc4[nH]nnc4cc3F)[nH]c12` [Example 334, N-({7-[(6-amino-9H-purin-9-yl)methyl]-5-chloro-1H-indol-2-yl}methyl)-5-fluoro-1H-benzotriazole-6-carboxamide], the IC50 was determined as 2040 nM.

`COc1cccc(C(=O)NCc2cc3cc(Cl)cc(Cn4cnc5c(N)ncnc54)c3[nH]2)c1` [Example 259, N-({7-[(6-amino-9H-purin-9-yl)methyl]-5-chloro-1H-indol-2-yl}methyl)-3-methoxybenzamide]: the IC50 was 3530 nM.

Regarding `Nc1ncnc2c1ncn2Cc1cc(Cl)cc2cc(CNC(=O)c3c(F)cccc3Br)[nH]c12` [Example 226, N-({7-[(6-amino-9H-purin-9-yl)methyl]-5-chloro-1H-indol-2-yl}methyl)-2-bromo-6-fluorobenzamide], the IC50 stood at 275 nM.

Turning to `N#Cc1ccccc1CNCc1cc2cc(Cl)cc(Cn3cnc4c(N)ncnc43)c2[nH]1` [Example 269, 2-{[({7-[(6-amino-9H-purin-9-yl)methyl]-5-chloro-1H-indol-2-yl}methyl)amino]methyl}benzonitrile], the IC50 was found to be 5600 nM.

In the case of `Cc1noc(C2CC2)c1C(=O)NCc1cc2cc(Cl)cc(Cn3cnc4c(N)ncnc43)c2[nH]1` [Example 190, N-({7-[(6-amino-9H-purin-9-yl)methyl]-5-chloro-1H-indol-2-yl}methyl)-5-cyclopropyl-3-methyl-1,2-oxazole-4-carboxamide], the IC50 worked out at 910 nM.

For the compound `Nc1ncnc2c1ncn2Cc1cc(Cl)cc2cc(CNC(=O)c3nc4[nH]ccc4cc3Cl)[nH]c12` [Example 349, N-({7-[(6-amino-9H-purin-9-yl)methyl]-5-chloro-1H-indol-2-yl}methyl)-5-chloro-1H-pyrrolo[2,3-b]pyridine-6-carboxamide], the IC50 is 8780 nM.

For `CC(=O)N1CC=C(c2cc(Cn3cnc4c(N)ncnc43)c3[nH]c(CNC(=O)c4ccnnc4C)cc3c2)CC1` [Example 203, N-({5-(1-acetyl-1,2,3,6-tetrahydropyridin-4-yl)-7-[(6-amino-9H-purin-9-yl)methyl]-1H-indol-2-yl}methyl)-3-methylpyridazine-4-carboxamide], the IC50 came to 27.7 nM.

Regarding `Cc1ncccc1C(=O)NCc1cc2cc(Cl)cc(Cn3cnc4c(N)ncnc43)c2[nH]1` [Example 233, N-({7-[(6-amino-9H-purin-9-yl)methyl]-5-chloro-1H-indol-2-yl}methyl)-2-methylpyridine-3-carboxamide], the IC50 was found to be 236 nM.

Consider `NCc1cc2c(C3=CCCC3)ccc(Cn3cnc4c(N)ncnc43)c2[nH]1` [Example 67, 9-{[2-(aminomethyl)-4-(cyclopent-1-en-1-yl)-1H-indol-7-yl]methyl}-9H-purin-6-amine], for which the IC50 amounted to 200 nM.

For the compound `N#Cc1cc(Cl)c(C(=O)NCc2cc3cc(Cl)cc(Cn4cnc5c(N)ncnc54)c3[nH]2)c(Cl)c1` [Example 283, N-({7-[(6-amino-9H-purin-9-yl)methyl]-5-chloro-1H-indol-2-yl}methyl)-2,6-dichloro-4-cyanobenzamide], the IC50 turned out to be 52.6 nM.

For the compound `NCc1cc2cc(Cl)cc(Cn3cnc4c(N)ncnc43)c2[nH]1` [Example 9, 9-{[2-(aminomethyl)-5-chloro-1H-indol-7-yl]methyl}-9H-purin-6-amine], the IC50 stood at 1170 nM.

For `C=CC(=O)NCc1cc2cc(Cl)cc(Cn3cnc4c(N)ncnc43)c2[nH]1` [Example 93, N-({7-[(6-amino-9H-purin-9-yl)methyl]-5-chloro-1H-indol-2-yl}methyl)prop-2-enamide], the IC50 is 9730 nM.

Take `Nc1ncnc2c1ncn2Cc1cc(Cl)cc2cc(CNC(=O)Cc3ccc(Cl)cc3)[nH]c12` [Example 251, N-({7-[(6-amino-9H-purin-9-yl)methyl]-5-chloro-1H-indol-2-yl}methyl)-2-(4-chlorophenyl)acetamide]: the IC50 was above 50000 nM.

For `CC(N)c1cc2cc(Cl)cc(Cn3cnc4c(N)ncnc43)c2[nH]1` (stereo not shown) [Example 88, 9-{[2-(1-aminoethyl)-5-chloro-1H-indol-7-yl]methyl}-9H-purin-6-amine], the IC50 came out at 1430 nM.

For the compound `Cc1noc(N)c1C(=O)NCc1cc2cc(Cl)cc(Cn3cnc4c(N)ncnc43)c2[nH]1` [Example 155, 5-amino-N-({7-[(6-amino-9H-purin-9-yl)methyl]-5-chloro-1H-indol-2-yl}methyl)-3-methyl-1,2-oxazole-4-carboxamide], the IC50 is 3590 nM.

For `Cc1cc(C#N)ccc1C(=O)NCc1cc2cc(Cl)cc(Cn3cnc4c(N)ncnc43)c2[nH]1` [Example 303, N-({7-[(6-amino-9H-purin-9-yl)methyl]-5-chloro-1H-indol-2-yl}methyl)-4-cyano-2-methylbenzamide], the IC50 was 72.3 nM.

In the case of `Cc1nc2cc(C(=O)NCc3cc4cc(Cl)cc(Cn5cnc6c(N)ncnc65)c4[nH]3)ccc2n1C` [Example 367, N-({7-[(6-amino-9H-purin-9-yl)methyl]-5-chloro-1H-indol-2-yl}methyl)-1,2-dimethyl-1H-benzimidazole-5-carboxamide], the IC50 was 591 nM.

For the compound `Nc1ncnc2c1ncn2Cc1cc(Cl)cc2cc(CNC(=O)c3cnn4c3CCCC4)[nH]c12` [Example 192, N-({7-[(6-amino-9H-purin-9-yl)methyl]-5-chloro-1H-indol-2-yl}methyl)-4,5,6,7-tetrahydropyrazolo[1,5-a]pyridine-3-carboxamide], the IC50 was 2140 nM.

Turning to `Nc1ncnc2c1ncn2Cc1cc(Cl)cc2cc(CNCc3ccccc3)[nH]c12` [Example 207, 9-({2-[(benzylamino)methyl]-5-chloro-1H-indol-7-yl}methyl)-9H-purin-6-amine], the IC50 stood at 943 nM.

`NCc1cc2c(-c3cccc(C(N)=O)c3)ccc(Cn3cnc4c(N)ncnc43)c2[nH]1` [Example 84, 3-{2-(aminomethyl)-7-[(6-amino-9H-purin-9-yl)methyl]-1H-indol-4-yl}benzamide]: the IC50 came to 569 nM.

Consider `Nc1ncnc2c1ncn2Cc1cc(Cl)cc2cc(CNC(=O)CCN3CCCC3)[nH]c12` [Example 122, N-({7-[(6-amino-9H-purin-9-yl)methyl]-5-chloro-1H-indol-2-yl}methyl)-3-(pyrrolidin-1-yl)propanamide], for which the IC50 amounted to 4770 nM.

Take `COc1ccccc1CC(=O)NCc1cc2cc(Cl)cc(Cn3cnc4c(N)ncnc43)c2[nH]1` [Example 298, N-({7-[(6-amino-9H-purin-9-yl)methyl]-5-chloro-1H-indol-2-yl}methyl)-2-(2-methoxyphenyl)acetamide]: the IC50 turned out to be 5980 nM.
